In US20260232607A1, “COMPOSITIONS AND METHODS INVOLVING ISOLATED COMPOUNDS” (CuraSen Therapeutics, Inc., priority 2022, published 2026):
Where two headings read alike, the source gives them in different places. Each block holds one molecule with its values, some of them ahead of it.

Columns and labels:
β1-AR = molecular target: T1, β1-AR (Homo sapiens, UniProt P08588); assay: cAMP Gs HTRF assay, inhibition of isoproterenol-stimulated cAMP, affinity by Leff-Dougall equation; format: cell-based; conditions: CHO-K1 cells, approximate EC80 isoproterenol
T1 construct: expressed in transfected cells; host or cells: CHO-K1
From the text: When cAMP turnover is reduced by blocking phosphodiesterases with IBMX, cAMP accumulation occurs, and this accumulation is detected in the cAMP Gs Homogenous Time Resolved Fluorescence (HTRF) assay. The HTRF assay is a competitive inhibition assay. Endogenous cAMP, produced by stimulated cells, competes with and prevents FRET between acceptor-labeled cAMP and donor-labeled cAMP antibody. Increases in endogenous cAMP therefore cause a reduction in HTRF signal, expressed as a ratio of FRET acceptor fluorescence and FRET donor fluorescence.
cAMP HTRF measurements were performed broadly according to the cAMP Gs dynamic kit protocol (Cisbio/Perkin Elmer, 62AM4PEC). Compounds were prepared at 2× final concentration to accommodate the subsequent addition of cells. […] Test compounds were serially diluted across the plate by nine 5-fold dilutions to generate a 10-point dose-response curve.
384 well plates containing compound were covered and stored at room temperature until resuspended cell addition.
D2-labelled cAMP (Acceptor) and Europium cryptate labelled cAMP antibody (Donor) (Cisbio/Perkin Elmer 62AM4PEC) were dissolved in water following the manufacturer's instructions, aliquoted and stored at −80° C.
CHO-K1 cells expressing exogenous β-ARs were resuspended using methods as described above, were recovered from flasks using PBS […] (Caisson PBL02) and centrifuged at 250×g for 5 minutes in a 50 ml falcon tube. PBS/versene was removed by aspiration and cells were resuspended in a minimal volume of room temperature 1× stimulation buffer+IBMX prior to cell counting. 5 ul cells of correct density (2000 cells/well) were added to compound in assay plates using a Multidrop Combi (Thermofisher). Cells and compounds were covered with a clear plate seal (Axygen PCR-SP) and incubated at 37° C., 5% CO2 for 30 minutes. cAMP accumulation was then stopped by adding 10 μL HTRF detection reagents in lysis buffer using the Multidrop Combi, plates were covered with an aluminum plate seal (Axygen PCR-AS-600) and agitated (Heidolph Titramax 1000, setting 600) for at least 2 hours, to allow competition between D2-cAMP and stimulated cAMP for the donor-labelled cAMP antibody to reach equilibrium.
HTRF was detected using a Tecan Spark plate reader, operated using SparkControl™ software, using the TR fluorescence intensity setting. Both donor and acceptor was excited at 320 nm, detected after 100 μs delay, with 400 μs integration time, and 50 flashes per read. […] To standardize reads across experiments, camera gain was manually set to 120 for donor detection, and 140 for acceptor detection.

[1] = In vivo PK in rats (IV and PO); conditions: male SD rat
Description: The rat pharmacokinetics studies of exemplary compounds NI-C and NI-D were conducted with male SD rats. These rats were typically about 6-8 weeks old, weighing 200 g to 300 g. Animals were fasted overnight and have free access to food 4 hours after dosing. A required volume of vehicle was added to reach the target concentration of the test article and vehicle component to prepare for the dosing. The dosing vehicle was PEG400 or 30% PEG400 in saline for IV, or 0.5% methylcellulose in water for PO. For IV dosing, the animals were administered intravenously via tail vein. For PO dosing, the animals were administered via oral gavage. After dosing, blood sample was collected (~0.2 mL per time point) through jugular vein or heart puncture. Blood of each sample was transferred into plastic micro centrifuge tubes containing EDTA-K2. Collection tubes with blood samples and anticoagulant were inverted several times for proper mixing of the tube contents and then placed on wet ice. The blood samples were centrifuged at 2000 g for 5 minutes at 4° C. to obtain plasma which was stored in a freezer at −75±15° C. prior to analysis. Samples were analyzed using LC-MS/MS. WinNonlin were used for pharmacokinetic calculations.

OATP1A2 [2] = molecular target: T2, OATP1A2 (Homo sapiens, UniProt P46721); assay: Uptake in OATP1A2-transfected cells versus control cells; conditions: 2-fold threshold
T2 sequence (P46721 1-670): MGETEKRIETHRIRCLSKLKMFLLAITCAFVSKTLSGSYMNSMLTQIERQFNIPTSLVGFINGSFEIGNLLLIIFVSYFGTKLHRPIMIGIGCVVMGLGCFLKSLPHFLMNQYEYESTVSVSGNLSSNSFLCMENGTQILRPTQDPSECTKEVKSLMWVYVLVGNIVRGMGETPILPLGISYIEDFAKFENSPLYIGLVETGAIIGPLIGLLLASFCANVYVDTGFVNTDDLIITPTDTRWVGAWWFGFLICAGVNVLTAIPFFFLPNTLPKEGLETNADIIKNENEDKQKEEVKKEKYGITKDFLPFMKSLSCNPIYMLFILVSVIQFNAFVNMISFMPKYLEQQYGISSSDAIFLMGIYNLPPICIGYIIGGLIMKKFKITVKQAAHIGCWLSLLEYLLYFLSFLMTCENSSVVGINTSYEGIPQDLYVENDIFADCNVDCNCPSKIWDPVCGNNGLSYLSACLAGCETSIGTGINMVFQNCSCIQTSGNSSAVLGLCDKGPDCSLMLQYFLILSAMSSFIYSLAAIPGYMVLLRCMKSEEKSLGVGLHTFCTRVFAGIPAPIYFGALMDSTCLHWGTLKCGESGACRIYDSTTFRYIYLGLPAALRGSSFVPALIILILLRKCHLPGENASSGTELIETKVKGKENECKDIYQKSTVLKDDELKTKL

β2-AR [3] = molecular target: T3, β2-AR (Homo sapiens, UniProt P07550); assay: Compound 03-5 β2-AR occupancy calculated with the Gaddum equation from measured plasma and CSF concentrations; conditions: alone, no nadolol or isomer competition
β2-AR [4] = molecular target: T3, β2-AR; assay: Radioligand binding; conditions: read-out: β2-AR affinity by radioligand binding
From the text: In contrast, NI-C blocks the fraction of peripheral β2-AR receptors bound by Compound 03-5 to 0.02 while maintaining the fraction of central β2-AR receptors bound by Compound 03-5 to 0.21.

clinical = conditions: human, CSF/plasma
[5] = CSF and plasma concentrations in healthy human subjects dosed with Compound 03-5 and nadolol; conditions: for CSF/Plasma ratio: Day 6; for Concentration in CSF / Concentration in plasma: Day 6, 2 hrs after Compound 03-5 (15 mg), nadolol 20 mg
OATP1A2 [6] = molecular target: T2, OATP1A2

T1 sequence (P08588 whole entry): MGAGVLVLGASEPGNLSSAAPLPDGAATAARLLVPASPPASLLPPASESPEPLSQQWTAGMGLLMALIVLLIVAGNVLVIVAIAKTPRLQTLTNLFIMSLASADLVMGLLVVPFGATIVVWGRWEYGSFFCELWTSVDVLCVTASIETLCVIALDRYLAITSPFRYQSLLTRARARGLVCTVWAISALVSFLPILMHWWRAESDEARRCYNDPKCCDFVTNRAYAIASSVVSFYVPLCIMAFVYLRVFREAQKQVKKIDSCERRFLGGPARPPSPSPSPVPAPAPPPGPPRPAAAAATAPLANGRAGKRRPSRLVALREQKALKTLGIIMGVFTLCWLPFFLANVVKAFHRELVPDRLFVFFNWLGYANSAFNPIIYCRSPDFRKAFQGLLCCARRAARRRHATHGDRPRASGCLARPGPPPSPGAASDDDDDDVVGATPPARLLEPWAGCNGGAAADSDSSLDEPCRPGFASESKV
T3 sequence (P07550 whole entry): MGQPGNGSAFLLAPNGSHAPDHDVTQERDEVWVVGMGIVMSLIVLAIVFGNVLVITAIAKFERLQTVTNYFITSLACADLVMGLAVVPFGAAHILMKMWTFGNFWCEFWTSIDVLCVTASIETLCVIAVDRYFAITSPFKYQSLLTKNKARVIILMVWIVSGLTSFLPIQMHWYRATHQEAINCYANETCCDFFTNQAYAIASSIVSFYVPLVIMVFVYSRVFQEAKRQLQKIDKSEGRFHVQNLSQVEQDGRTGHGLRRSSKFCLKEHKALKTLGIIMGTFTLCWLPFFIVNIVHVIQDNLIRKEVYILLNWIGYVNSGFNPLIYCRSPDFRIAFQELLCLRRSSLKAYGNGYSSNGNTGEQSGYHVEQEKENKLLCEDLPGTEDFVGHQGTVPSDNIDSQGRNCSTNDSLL

Structure (SMILES): CC(C)(C)NCC(O)COc1cccc2c1CC(O)C(O)C2 (single isomer, unassigned) [NI-A, (RSR)-nadolol]
- Ki (β1-AR): 891 nM
- pKi (β1-AR): 6.05 ± 0.10

Structure (SMILES): CC(C)(C)NCC(O)COc1cccc2c1CC(O)C(O)C2 (single isomer, unassigned) [NI-B, (RRS)-nadolol]
- Ki (β1-AR): 354 nM
- pKi (β1-AR): 6.45 ± 0.10

Structure (SMILES): CC(C)(C)NCC(O)COc1cccc2c1CC(O)C(O)C2 (single isomer, unassigned) [NI-C, (SRS)-nadolol]
- AUCInf ([1]; 1 mg/kg iv): 488 ng·h/mL
- C0 ([1]; 1 mg/kg iv): 1142 ng/mL
- CL ([1]; 1 mg/kg iv): 34.5 mL/min/kg
- T1/2 ([1]; 1 mg/kg iv): 2.87 h
- Vss ([1]; 1 mg/kg iv): 4.74 L/kg
- AUCInf ([1]; 5 mg/kg po): 200 ng·h/mL
- Cmax ([1]; 5 mg/kg po): 37.9 ng/mL
- MRT ([1]; 5 mg/kg po): 4.12 h
- Tmax ([1]; 5 mg/kg po): 1.08 h
- Bioavailability ([1]; 5 mg/kg po vs 1 mg/kg iv): 8.21%
- Ki (β1-AR): 4.6 nM
- pKi (β1-AR): 8.34 ± 0.12

Structure (SMILES): CC(C)(C)NCC(O)COc1cccc2c1CC(O)C(O)C2 (single isomer, unassigned) [NI-D, (SSR)-nadolol]
- Ki (β1-AR): 2.6 nM
- pKi (β1-AR): 8.58 ± 0.18

Structure (SMILES): CC(C)(C)NCC(O)COc1cccc2c1CC(O)C(O)C2 (centres unmarked) [(SRS)-NADOLOL]
- Substrate for OATP1A2 (OATP1A2 [2]): appear to be substrates for OATP1A2

Structure (SMILES): CC(C)(C)NCC(O)COc1cccc2c1CC(O)C(O)C2 (centres unmarked) [(SSR)-NADOLOL]
- Substrate for OATP1A2 (OATP1A2 [2]): does not appear to be a substrate for OATP1A2

- Fraction of β2-AR receptors bound by Compound 03-5 in the CSF (β2-AR [3]): 0.29
- Fraction of β2-AR receptors bound by Compound 03-5 in the periphery (β2-AR [3]): 0.46
- Ki (β2-AR [4]): 374 nM
- Kp (clinical): 0.47
- Kp (clinical; oral): 0.42
- CSF/Plasma ratio ([5]; Average of 4 subjects): 47%
- Concentration in CSF ([5]; Average of 4 subjects): 34.675 ng/mL
- Concentration in plasma ([5]; Average of 4 subjects): 74.25 ng/mL
- Concentration in CSF ([5]; Subject A): 37 ng/mL
- Concentration in plasma ([5]; Subject A): 87.4 ng/mL
- CSF/Plasma ratio ([5]; Subject B): 44%
- Concentration in CSF ([5]; Subject B): 27.1 ng/mL
- Concentration in plasma ([5]; Subject B): 61.2 ng/mL
- CSF/Plasma ratio ([5]; Subject C): 42%
- Concentration in CSF ([5]; Subject C): 30.3 ng/mL
- Concentration in plasma ([5]; Subject C): 72.9 ng/mL
- CSF/Plasma ratio ([5]; Subject D): 59%
- Concentration in CSF ([5]; Subject D): 44.3 ng/mL
- Concentration in plasma ([5]; Subject D): 75.5 ng/mL
Structure (SMILES): CC(C)(C)NC[C@H](O)c1cccc(C#N)n1 [Compound 03-5]

Structure (SMILES): CC(C)(C)NCC(O)COc1cccc2c1CC(O)C(O)C2 (centres unmarked) [Nadolol, reference compound]
- Ki (β1-AR): 5.5 nM
- Substrate for OATP1A2 (OATP1A2 [6]): appear to be substrates for OATP1A2
